In ChEMBL document CHEMBL3132769, “Fragment growing to retain or alter the selectivity of anchored kinase hinge-binding fragments” (Medchemcomm, 2014):

Experiments:
[1] = biological target: Protein kinase C beta type (Homo sapiens) (UniProt P05771); assay: Inhibition of human truncated PKC beta1 expressed in baculovirus assessed as substrate phosphorylation using fluorescence-labelled peptides as substrate at 420 uM after 90 mins by microfluidic peptide phosphorylation assay
[2] = biological target: T1, Serine/threonine-protein kinase Chk1 (Homo sapiens) (UniProt O14757); assay: Inhibition of human full length CHK1 expressed in baculovirus assessed as substrate phosphorylation using fluorescence-labelled peptides as substrate at 0.2 uM after 90 mins by microfluidic peptide phosphorylation assay
T1 sequence (whole entry): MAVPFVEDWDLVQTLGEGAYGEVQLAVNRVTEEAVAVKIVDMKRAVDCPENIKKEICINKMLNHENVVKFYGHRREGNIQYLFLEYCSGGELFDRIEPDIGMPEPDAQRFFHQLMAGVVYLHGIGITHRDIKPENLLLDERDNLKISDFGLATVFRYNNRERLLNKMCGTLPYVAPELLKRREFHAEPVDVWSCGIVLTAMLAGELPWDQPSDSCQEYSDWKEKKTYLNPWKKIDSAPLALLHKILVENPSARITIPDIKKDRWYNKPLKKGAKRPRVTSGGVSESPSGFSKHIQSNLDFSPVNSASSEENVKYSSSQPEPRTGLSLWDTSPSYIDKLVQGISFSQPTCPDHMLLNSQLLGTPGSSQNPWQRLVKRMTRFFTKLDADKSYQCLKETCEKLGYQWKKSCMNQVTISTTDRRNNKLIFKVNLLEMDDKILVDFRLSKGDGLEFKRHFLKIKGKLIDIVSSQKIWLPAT

[3] = biological target: Protein kinase C theta type (Homo sapiens) (UniProt Q04759); assay: Inhibition of human truncated PKC theta expressed in baculovirus assessed as substrate phosphorylation using fluorescence-labelled peptides as substrate at […] after 90 mins by microfluidic peptide phosphorylation assay
[4] = biological target: T2, Aurora kinase A (Homo sapiens) (UniProt O14965); assay: Inhibition of human full length AurA expressed in baculovirus assessed as substrate phosphorylation using fluorescence-labelled peptides as substrate at 9 uM after 90 mins by microfluidic peptide phosphorylation assay
T2 sequence (whole entry): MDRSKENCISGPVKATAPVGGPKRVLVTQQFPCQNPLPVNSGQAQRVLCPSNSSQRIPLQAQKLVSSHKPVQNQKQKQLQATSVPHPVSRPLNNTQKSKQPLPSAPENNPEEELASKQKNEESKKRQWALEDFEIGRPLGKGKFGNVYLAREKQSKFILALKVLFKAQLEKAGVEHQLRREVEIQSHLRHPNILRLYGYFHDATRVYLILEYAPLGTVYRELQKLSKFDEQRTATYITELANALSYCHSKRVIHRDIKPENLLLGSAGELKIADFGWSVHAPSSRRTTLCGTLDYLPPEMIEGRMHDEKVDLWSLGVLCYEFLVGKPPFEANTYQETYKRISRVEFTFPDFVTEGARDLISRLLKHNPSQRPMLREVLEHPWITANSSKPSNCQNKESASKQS

[5] = biological target: Aurora kinase B (Homo sapiens) (UniProt Q96GD4); assay: Inhibition of human full length AurB expressed in baculovirus assessed as substrate phosphorylation using fluorescence-labelled peptides as substrate at 9 uM after 90 mins by microfluidic peptide phosphorylation assay
[6] = biological target: Calcium/calmodulin-dependent protein kinase type II subunit beta (Homo sapiens) (UniProt Q13554); assay: Inhibition of human CAMK2 beta catalytic domain expressed in baculovirus assessed as substrate phosphorylation using fluorescence-labelled peptides as substrate at 9 uM after 90 mins by microfluidic peptide phosphorylation assay
[7] = biological target: T3, cGMP-dependent protein kinase 1 (Homo sapiens) (UniProt Q13976); assay: Inhibition of human full length PKG-1beta expressed in baculovirus assessed as substrate phosphorylation using fluorescence-labelled peptides as substrate at 95 uM after 90 mins by microfluidic peptide phosphorylation assay
T3 sequence (whole entry): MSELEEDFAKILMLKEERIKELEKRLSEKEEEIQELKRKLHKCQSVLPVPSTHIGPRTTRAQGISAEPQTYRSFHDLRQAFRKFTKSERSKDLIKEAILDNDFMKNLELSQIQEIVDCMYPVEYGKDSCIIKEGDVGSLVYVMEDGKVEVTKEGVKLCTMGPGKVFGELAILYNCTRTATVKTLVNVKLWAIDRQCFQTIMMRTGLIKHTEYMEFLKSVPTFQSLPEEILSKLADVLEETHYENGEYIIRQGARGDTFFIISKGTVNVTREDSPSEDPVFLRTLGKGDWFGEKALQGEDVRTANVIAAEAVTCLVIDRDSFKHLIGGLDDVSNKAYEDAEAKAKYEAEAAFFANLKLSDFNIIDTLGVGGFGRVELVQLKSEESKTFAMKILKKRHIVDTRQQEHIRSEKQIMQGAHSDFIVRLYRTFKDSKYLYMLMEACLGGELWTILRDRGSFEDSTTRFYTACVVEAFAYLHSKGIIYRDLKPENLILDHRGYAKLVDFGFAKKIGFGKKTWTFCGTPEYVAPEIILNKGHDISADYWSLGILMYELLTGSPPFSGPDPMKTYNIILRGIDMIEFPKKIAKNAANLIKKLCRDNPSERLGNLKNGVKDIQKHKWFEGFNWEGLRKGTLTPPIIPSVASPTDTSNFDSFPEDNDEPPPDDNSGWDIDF

[8] = biological target: Protein kinase C beta type (Homo sapiens) (UniProt P05771); assay: Inhibition of human truncated PKC beta1 expressed in baculovirus assessed as substrate phosphorylation using fluorescence-labelled peptides as substrate at 1000 uM after 90 mins by microfluidic peptide phosphorylation assay
[9] = biological target: Serine/threonine-protein kinase MARK1 (Homo sapiens) (UniProt Q9P0L2); assay: Inhibition of human full length MARK1 expressed in baculovirus assessed as substrate phosphorylation using fluorescence-labelled peptides as substrate at 1000 uM after 90 mins by microfluidic peptide phosphorylation assay
[10] = biological target: T4, Interleukin-1 receptor-associated kinase 4 (Homo sapiens) (UniProt Q9NWZ3); assay: Inhibition of human IRAK4 catalytic domain expressed in baculovirus assessed as substrate phosphorylation using fluorescence-labelled peptides as substrate at 1000 uM after 90 mins by microfluidic peptide phosphorylation assay
T4 sequence (whole entry): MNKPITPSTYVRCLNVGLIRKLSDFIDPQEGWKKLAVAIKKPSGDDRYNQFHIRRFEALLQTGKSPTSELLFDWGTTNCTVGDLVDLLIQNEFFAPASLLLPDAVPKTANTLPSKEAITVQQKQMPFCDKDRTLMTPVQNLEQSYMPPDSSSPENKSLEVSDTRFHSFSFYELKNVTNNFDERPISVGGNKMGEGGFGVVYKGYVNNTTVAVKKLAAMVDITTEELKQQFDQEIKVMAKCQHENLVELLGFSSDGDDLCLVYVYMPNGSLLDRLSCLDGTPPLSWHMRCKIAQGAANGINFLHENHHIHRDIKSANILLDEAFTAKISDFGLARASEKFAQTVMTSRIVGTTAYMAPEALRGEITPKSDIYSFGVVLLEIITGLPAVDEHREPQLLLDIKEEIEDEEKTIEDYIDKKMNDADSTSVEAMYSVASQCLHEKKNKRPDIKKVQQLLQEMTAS

Protein kinase C beta type (Homo sapiens), sequence (P05771 2-671 limits assumed): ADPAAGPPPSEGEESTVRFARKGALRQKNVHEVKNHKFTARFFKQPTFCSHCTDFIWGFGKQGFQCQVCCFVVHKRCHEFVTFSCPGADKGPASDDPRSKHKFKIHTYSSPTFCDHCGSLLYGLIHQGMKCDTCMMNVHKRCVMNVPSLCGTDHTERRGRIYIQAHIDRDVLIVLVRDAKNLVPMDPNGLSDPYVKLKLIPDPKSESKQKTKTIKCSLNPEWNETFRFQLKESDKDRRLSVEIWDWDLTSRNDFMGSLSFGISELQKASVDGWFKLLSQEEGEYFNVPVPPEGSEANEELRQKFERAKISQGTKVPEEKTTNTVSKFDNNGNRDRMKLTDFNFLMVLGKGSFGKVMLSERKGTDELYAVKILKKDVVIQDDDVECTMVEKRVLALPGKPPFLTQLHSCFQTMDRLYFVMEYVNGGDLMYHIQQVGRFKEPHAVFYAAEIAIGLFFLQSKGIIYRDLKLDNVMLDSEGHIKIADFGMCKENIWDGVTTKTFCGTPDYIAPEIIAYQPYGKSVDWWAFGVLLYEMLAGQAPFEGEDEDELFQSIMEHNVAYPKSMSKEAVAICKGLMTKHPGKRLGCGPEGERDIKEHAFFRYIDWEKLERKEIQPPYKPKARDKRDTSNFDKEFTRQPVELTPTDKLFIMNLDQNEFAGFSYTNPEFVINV
Serine/threonine-protein kinase MARK1 (Homo sapiens), sequence (Q9P0L2 whole entry, looked up, the tested form may be a part): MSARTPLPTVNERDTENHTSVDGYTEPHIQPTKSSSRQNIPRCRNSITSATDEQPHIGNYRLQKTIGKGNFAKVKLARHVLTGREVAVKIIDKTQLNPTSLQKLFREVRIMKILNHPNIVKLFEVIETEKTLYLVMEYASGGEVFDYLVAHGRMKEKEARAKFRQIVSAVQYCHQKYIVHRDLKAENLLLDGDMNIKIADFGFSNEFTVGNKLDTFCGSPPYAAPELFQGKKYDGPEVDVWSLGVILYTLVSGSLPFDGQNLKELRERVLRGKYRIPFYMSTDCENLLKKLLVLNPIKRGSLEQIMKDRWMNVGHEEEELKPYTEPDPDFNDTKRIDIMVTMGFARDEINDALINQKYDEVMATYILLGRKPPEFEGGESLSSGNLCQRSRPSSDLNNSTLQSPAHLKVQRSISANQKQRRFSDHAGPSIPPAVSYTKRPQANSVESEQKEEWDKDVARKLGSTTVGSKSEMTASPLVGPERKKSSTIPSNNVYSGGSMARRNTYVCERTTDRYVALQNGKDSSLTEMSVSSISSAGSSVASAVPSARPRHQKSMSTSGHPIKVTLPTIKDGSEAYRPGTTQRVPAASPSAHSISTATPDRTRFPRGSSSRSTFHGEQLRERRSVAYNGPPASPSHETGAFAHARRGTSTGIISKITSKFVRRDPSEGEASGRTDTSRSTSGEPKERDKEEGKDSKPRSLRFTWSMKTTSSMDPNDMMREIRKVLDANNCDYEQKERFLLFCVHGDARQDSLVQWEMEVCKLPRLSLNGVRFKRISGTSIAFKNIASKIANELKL
Aurora kinase B (Homo sapiens), sequence (Q96GD4 whole entry, the tested form may be a part): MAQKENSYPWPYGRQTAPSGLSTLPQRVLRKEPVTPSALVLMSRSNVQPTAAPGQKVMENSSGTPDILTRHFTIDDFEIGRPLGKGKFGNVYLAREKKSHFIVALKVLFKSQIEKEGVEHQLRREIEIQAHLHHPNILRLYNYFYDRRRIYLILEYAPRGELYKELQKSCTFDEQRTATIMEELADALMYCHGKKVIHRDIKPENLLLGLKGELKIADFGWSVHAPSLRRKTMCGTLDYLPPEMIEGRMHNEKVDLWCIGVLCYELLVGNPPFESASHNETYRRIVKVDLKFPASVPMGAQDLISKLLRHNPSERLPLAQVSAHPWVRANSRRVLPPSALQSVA
Calcium/calmodulin-dependent protein kinase type II subunit beta (Homo sapiens), sequence (Q13554 whole entry, the tested form may be a part): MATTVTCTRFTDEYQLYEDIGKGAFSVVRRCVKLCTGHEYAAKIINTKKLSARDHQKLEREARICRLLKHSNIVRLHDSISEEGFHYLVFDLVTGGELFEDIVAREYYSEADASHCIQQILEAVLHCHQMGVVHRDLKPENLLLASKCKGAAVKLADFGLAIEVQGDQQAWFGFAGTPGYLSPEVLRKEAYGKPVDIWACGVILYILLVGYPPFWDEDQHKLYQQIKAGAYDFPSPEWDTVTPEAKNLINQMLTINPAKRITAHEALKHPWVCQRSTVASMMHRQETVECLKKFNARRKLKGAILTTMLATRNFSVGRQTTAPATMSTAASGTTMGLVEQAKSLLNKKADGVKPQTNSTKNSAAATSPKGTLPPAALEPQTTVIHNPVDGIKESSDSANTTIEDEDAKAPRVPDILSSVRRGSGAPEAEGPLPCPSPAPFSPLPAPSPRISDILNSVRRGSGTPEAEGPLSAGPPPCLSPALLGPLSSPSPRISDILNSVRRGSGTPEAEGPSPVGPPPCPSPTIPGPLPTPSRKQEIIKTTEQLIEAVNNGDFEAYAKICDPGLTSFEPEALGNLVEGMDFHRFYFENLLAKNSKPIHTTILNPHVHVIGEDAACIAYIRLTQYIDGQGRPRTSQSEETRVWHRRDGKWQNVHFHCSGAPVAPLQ
Protein kinase C theta type (Homo sapiens), sequence (Q04759 whole entry, looked up, the tested form may be a part): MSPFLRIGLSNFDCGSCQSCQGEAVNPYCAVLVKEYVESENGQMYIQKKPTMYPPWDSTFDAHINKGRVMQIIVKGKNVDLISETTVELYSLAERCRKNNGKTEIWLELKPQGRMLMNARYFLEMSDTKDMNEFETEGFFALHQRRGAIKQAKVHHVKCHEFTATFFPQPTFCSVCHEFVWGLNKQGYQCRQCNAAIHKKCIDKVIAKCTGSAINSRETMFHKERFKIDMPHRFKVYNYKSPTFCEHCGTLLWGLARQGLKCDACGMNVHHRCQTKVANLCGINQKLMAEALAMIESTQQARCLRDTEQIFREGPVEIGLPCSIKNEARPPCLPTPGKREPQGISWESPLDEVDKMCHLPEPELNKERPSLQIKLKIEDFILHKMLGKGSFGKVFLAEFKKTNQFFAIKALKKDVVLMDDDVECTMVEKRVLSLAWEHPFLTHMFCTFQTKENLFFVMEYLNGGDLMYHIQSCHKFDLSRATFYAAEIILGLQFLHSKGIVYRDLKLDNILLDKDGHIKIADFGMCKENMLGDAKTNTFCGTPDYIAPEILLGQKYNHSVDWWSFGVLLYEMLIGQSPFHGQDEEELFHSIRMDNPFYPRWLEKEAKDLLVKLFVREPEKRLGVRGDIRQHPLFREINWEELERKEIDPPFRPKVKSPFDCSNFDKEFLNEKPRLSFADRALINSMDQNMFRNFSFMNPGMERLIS

Q: `c1nc(N2CCOCC2)c2nc[nH]c2n1` was tested. Which inhibition [1] did it give?
A: The inhibition was 70%.

Q: Which inhibition [2] does the source give for `Clc1ccc(C2(c3ccc(-c4ncnc5[nH]cnc45)cc3)CCNCC2)cc1` here?
A: Its inhibition is 46%.

Q: Which inhibition [3] does the source give for `COC(=O)c1cnc(Nc2cnc(C#N)cn2)cc1NCC1CCNCC1` here?
A: The inhibition was 4%.

Q: Which results are given for `NCC1CN(c2ncnc3[nH]c4cnccc4c23)CCO1` (stereo not given)?
A: inhibition [4]: 23.5%; inhibition [5]: 31%; inhibition [6]: 4%

Q: For `NCCc1ccc(-c2ncnc3[nH]cnc23)cc1`, which inhibition [7] is on record?
A: The inhibition was 93%.

Q: Which inhibition [8] does the source give for `c1cnc2[nH]ccc2c1` here?
A: Its inhibition is 46%.

Q: And the inhibition [9]?
A: The inhibition was 93.5%.

Q: What about the inhibition [10] of the same compound?
A: The inhibition was 65%.
